The text below walks through data of patent US7582652B2, “Kinase inhibitors” (Eli Lilly and Company, priority 2004, dated 2009).

In one test the target is p38 kinase enzyme (Homo sapiens, UniProt Q16539). Nature of the test: Inhibition of p38 kinase. Type of test: biochemical. The conditions noted are these: 33P-ATP, EGF peptide 661-681, 30° C. On the procedure: Standard Solution Preparations
The kinase buffer solution is prepared by combining 2.5 mL 1 M Tris-HCl (pH 7.5), 0.1 ml 1 M dithiothreitol, 1.0 mL 1 M magnesium chloride, and 300 μL 1% Triton X-100 and diluting to 100 mL with water. 84 mL of this kinase buffer solution is combined with 16 mL DMSO to prepare the 16% DMSO solution.
The 200 μM ATP solution is prepared by adding 102.6 μL 10 mM aqueous ATP, 25 μL ^33P-ATP, and 163.5 μL of 4 mM aqueous Epidermal Growth Factor Peptide 661-681 (Biomol, Catalog #P-121) in 5 mL kinase buffer solution.
The p38 kinase enzyme solution is prepared by dissolving 9.5 μL concentrated enzyme solution (250 ng p38 enzyme/μL kinase buffer solution) in 1536 μL kinase buffer solution.
An 80 μM solution of each test compound and control compound are prepared by dissolving 2 μL of a 10 mM stock solution of the respective compounds in dimethylsulfoxide in 248 μL of the 16% DMSO solution in a Costar 96-well microtiter plate. The plate is placed onto the Tecan Genesis automated liquid handler for 1:3 serial dilutions.
10 μL of serially diluted compound is placed with a Beckmnan Multimek 96-well automated liquid handler to the assay plate. […] of 200 μM ATP solution is added with a Titertek Multidrop 8-channel liquid handler. 10 μL of p38 kinase enzyme solution is transferred to the assay plate using the Multimek. The mixture is allowed to react for […] and then the reaction is stopped by adding 60 μL of freshly prepared 5% glacial AcOH with Multidrop. 80 μL of this solution is transferred to an “MAPH” plate using the Multimek. The plates are allowed to set for 30 min at RT and then washed/aspirated on the Titertek MAP extractor with freshly prepared 0.5% glacial AcOH (1×300 μL, 2×200 μL). The wells are blotted and 100 μL MicroScint-20 scintillation fluid (Packard Bioscience) is added with the Multidrop. The plates are allowed to sit for 30 min and counted on a PE/Wallac Microbeta Trilux scintillation counter for ^33P-isotope.
All exemplified compounds were initially tested at 10 concentrations (20 μM−1 nM using 1:3 serial dilutions). […] IC50 values were calculated (IDBS ActivityBase software) for each compound using non-linear regression.

The test system of test [1] is TNF-α production in mouse peritoneal macrophages. The test is described as follows: Inhibition of TNF-α in vitro (mouse peritoneal macrophages, LPS/interferon-γ, Luminex). In kind it is cell-based. To be noted: Mus musculus, Peritoneal macrophage; suppression of TNF-α; macrophages treated with 50 ng/mL LPS and 10 U/mL interferon-γ for 18 h. How it is done: Mouse Peritoneal Macrophages
1 mL thioglycolate broth (5.0 g yeast extract, 15.0 g casitone or trypticase, 5.0 g dextrose, 2.5 g sodium chloride, 0.75 g L-cystine, 0.5 g sodium thioglycolate, 1.0 mg resazurin, and 0.75 g agar in 1.0 L distilled water) is injected into the peritoneal cavity of Balb/C female mice. At day 4 or 5 post-injection the mice are sacrificed and then injected i.p. with 4 mL RPMI-1640 medium (BioWhittaker) and the peritoneal macrophages are withdrawn by syringe.
Mouse peritoneal microphages are counted with a hemocytometer and adjusted to 5×10^5 cells/well in 96-well plates in RPMI-1640 medium with 10% fetal bovine serum. 200 μL/well is plated in 96-well plates and the cells allowed to settle and adhere to the bottom of the well for at least 3 h. The test compound or standard p38 kinase inhibitor is pre-treated using a series of 8 concentrations for 1 h at 37° C. (20 μL/well). The cells are treated with a mixture of 50 ng/mL lipopolysaccharide (LPS) and 10 U/mL interferon-γ for 18 h at 37° C. (20 μL/well). The conditioned media is harvested and assayed for TNF-α production using the Luminex procedure.
TNF-α/Luminex Detection Assay (Bio-Rad Bio-Plex Kit—Catalog #171-G12221)
The lyophilized premixed TNF-α standard (1 standard tube/two 96-well plates) is reconstituted with 50 μL sterile water (500,000 pg/mL). The samples are vortexed for 5 seconds, incubated on ice for 30 min, and vortexed for 5 seconds before use. A set of twelve 1.5 mL tubes are labeled with #1-thru #12 and then the amounts of cell media shown below added to the appropriate tubes (standard concentrations are as follows: 50,000; 25,000; 12,500; 6,250; 3,125; 1,562.5; 781.3; 390.6; 195.3; 97.7; 48.8; and 24.4 pg/mL). The premixed anti-cytokine conjugated beads are vortexed (25×) vigorously for 30 seconds. The anti-cytokine conjugated beads are diluted to a 1× concentration using 1× Bio-Plex Assay Buffer. For every plate, 240 μL of the pre-mixed beads is added to 5760 μL of Bio-Plex Assay Buffer. A Millipore 96-well filter plate is blocked with 100 μL/well of blocking buffer. The blocking buffer is filtered through using a Millipore filtration system and then toweled dry. 2 washes are performed on the filter plate with 100 μL/well of Bio-Plex Assay Buffer and toweled dry. The 1× anti-cytokine conjugated beads are vortexed for 15 seconds and added 50 μL to each well. This is filtered through and toweled dry. 2 washes are performed on plates with 100 μl/well of Bio-Plex Wash Buffer. Again, it is filtered through and toweled dry. 50 μL of sample or standard is added to each sample well. This is incubated for 60 seconds at RT on a shaker protected from light at setting 6 and then for 30 min at setting 3 and then placed in the refrigerator overnight. 3 washes are performed with Bio-Plex Wash Buffer. Filter through and toweled dry. The cytokine detection antibody is prepared (˜10 min prior to use) for every plate and 60 μL of the premixed cytokine detection antibody stock is added to 5940 μL of Bio-Plex Detection Antibody Diluent. 50 μL of cytokine detection antibody is added and incubated for 60 seconds at RT on a shaker protected from light at setting 6 and then for 30 min at setting 3.3 washes are performed with the Bio-Plex Wash Buffer. This is filtered through and toweled dry. Strept-PE (˜10 minutes prior to use) is prepared for every plate and 60 μL to 5940 μL of Bio-Plex Assay Buffer added. 50 μL of Streptavidin-PE is added to each well and incubated for 60 seconds at RT on a shaker protected from light at setting 6 and then for 10 min at setting 3. 3 washes are performed with Bio-Plex Wash-Buffer. This is filtered through. The beads are re-suspended in 100 μL/well of Bio-Plex Assay Buffer. Standards and samples are read on a Luminex machine. […]

For orientation: pIC50 means the IC50 on a negative log10 scale, so that one unit is a factor of ten.

The structures appear in SMILES notation. pIC50: −log10 of the molar value.

Sequence of p38 kinase enzyme (Q16539 whole entry): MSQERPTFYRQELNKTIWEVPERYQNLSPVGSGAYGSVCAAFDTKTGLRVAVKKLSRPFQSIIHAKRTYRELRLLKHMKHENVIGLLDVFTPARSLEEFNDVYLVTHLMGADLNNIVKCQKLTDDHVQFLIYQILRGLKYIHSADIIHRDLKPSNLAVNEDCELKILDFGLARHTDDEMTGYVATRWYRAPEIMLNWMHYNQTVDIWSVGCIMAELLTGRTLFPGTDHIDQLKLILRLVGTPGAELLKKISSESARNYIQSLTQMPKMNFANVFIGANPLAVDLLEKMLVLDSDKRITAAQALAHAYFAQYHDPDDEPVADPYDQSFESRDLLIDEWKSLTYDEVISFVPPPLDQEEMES

Take `Nc1nc2ccc(-c3[nH]c(-c4c(F)cccc4F)nc3-c3ccccc3)nc2n1CC1CC1` [compound 19, 3-Cyclopropylmethyl-5-[2-(2,6-difluorophenyl)-5-phenyl-3H-imidazol-4-yl]-3H-imidazo[4,5-b]pyridin-2-ylamine methanesulfonate]: the pIC50 against p38 kinase enzyme was 8.49; in test [1], above 8.04. The compound `C[C@@H](n1c(N)nc2ccc(-c3[nH]c(C(C)(C)C)nc3-c3ccc(F)cc3)nc21)C(C)(C)C` [compound 12, R-5-[2-tert-Butyl-5-(4-fluorophenyl)-3H-imidazol-4-yl]-3-(1,2,2-trimethylpropyl)-3H-imidazo[4,5-b]pyridin-2-ylamine methanesulfonate] had a pIC50 on p38 kinase enzyme of 8.44.

As for `CC(C)(C)Cn1c(N)nc2ccc(-c3[nH]c(-c4c(F)cccc4C(F)(F)F)nc3-c3ccccc3)nc21` [EXAMPLE 6, 3-(2,2-Dimethylpropyl)-5-[2-(2-fluoro-6-trifluoromethylphenyl)-5-phenyl-3H-imidazol-4-yl]-3H-imidazo[4,5-b]pyridin-2-ylamine methanesulfonate], the values for the pIC50 (against p38 kinase enzyme; in test [1]) were 8.14 and above 8.04, respectively. Consider `CC(C)(C)Cn1c(N)nc2ccc(-c3[nH]c(-c4c(F)cccc4Cl)nc3-c3ccccc3)nc21` [compound 18, 5-[2-(2-Chloro-6-fluorophenyl)-5-phenyl-3H-imidazol-4-yl]-3-(2,2-dimethylpropyl)-3H-imidazo[4,5-b]pyridin-2-ylamine methanesulfonate], for which the negative logarithm of the IC50 (pIC50) against p38 kinase enzyme is 8.44; in test [1], above 8.04. Taken in the same sequence, the figures for `C[C@@H](n1c(N)nc2ccc(-c3[nH]c(-c4c(F)cccc4F)nc3-c3ccc(F)cc3)nc21)C(C)(C)C` [compound 13, R-5-[2-(2,6-Difluorophenyl)-5-(4-fluorophenyl)-3H-imidazol-4-yl]-3-(1,2,2-trimethylpropyl)-3H-imidazo[4,5-b]pyridin-2-ylamine methanesulfonate] were 8.48 and above 8.04. In test [1], `CC(C)(C)Cn1c(N)nc2ccc(-c3[nH]c(C(C)(C)C)nc3-c3ccc(F)cc3)nc21` [EXAMPLE 9, 5-[2-tert-Butyl-5-(4-fluorophenyl)-3H-imidazol-4-yl]-3-(2,2-dimethylpropyl)-3H-imidazo[4,5-b]pyridin-2-ylamine methanesulfonate] had a negative logarithm of the IC50 (pIC50) of 8.92.

`CC(C)(C)Cn1c(N)nc2ccc(-c3[nH]c(C(C)(C)C)nc3-c3ccc(F)cc3F)nc21` [EXAMPLE 11, 5-[2-tert-Butyl-5-(2,4-difluorophenyl)-3H-imidazol-4-yl]-3-(2,2-dimethylpropyl)-3H-imidazo[4,5-b]pyridin-2-ylamine methanesulfonate] showed a pIC50 in test [1] of 8.62.
